Experiments:
GSPT1 = assay: Western blot, degradation of substrate protein in hPBMCs; type: cell-based, Human; conditions: Western blot, 24 hours of compound treatment, compounds tested at 50 nM and 500 nM (concentration for the table not stated)
[1] = molecular target: T1, human Cereblon WT GST-tagged protein (Homo sapiens, UniProt Q96SW2); assay: CRBN-binding affinity, HTRF (CEREBLON BINDING kit); conditions: for inhibition at 0.5 µM: read-out: Inhibition Rate at 0.5 µM (%); for inhibition at 2 µM: read-out: Inhibition Rate at 2 µM (%)
T1 construct: purchased CISBIO 64BDCRBNPEH

IKZF2 = molecular target: T2, IKZF2 (Homo sapiens, UniProt Q96SW2+Q9UKS7); assay: Western blot, degradation of substrate protein in hPBMCs; type: cell-based; conditions: Western blot, 24 hours of compound treatment, compounds tested at 50 nM and 500 nM (concentration for the table not stated)
T2 construct: effects of the compounds of the present disclosure on the expression of target proteins in cells; endogenous in cells; host or cells: human PBMCs (Milecell Biotechnologies)

IKZF3 = molecular target: T3, IKZF3 (Homo sapiens, UniProt Q96SW2+Q9UKT9); assay: as above; type: cell-based; conditions: Western blot, 24 hours of compound treatment, compounds tested at 50 nM and 500 nM (concentration for the table not stated)
T3 construct: effects of the compounds of the present disclosure on the expression of target proteins in cells; endogenous in cells; host or cells: human PBMCs (Milecell Biotechnologies)

CK1α = molecular target: T4, CK1α (Homo sapiens, UniProt P48729+Q96SW2); assay: as above; type: cell-based; conditions: Western blot, 24 hours of compound treatment, compounds tested at 50 nM and 500 nM (concentration for the table not stated)
T4 construct: effects of the compounds of the present disclosure on the expression of target proteins in cells; endogenous in cells; host or cells: human PBMCs (Milecell Biotechnologies)

WEE1 = molecular target: T5, WEE1 (Homo sapiens, UniProt P30291+Q96SW2); assay: as above; type: cell-based; conditions: Western blot, 24 hours of compound treatment, compounds tested at 50 nM and 500 nM (concentration for the table not stated)
T5 construct: effects of the compounds of the present disclosure on the expression of target proteins in cells; endogenous in cells; host or cells: human PBMCs (Milecell Biotechnologies)

IKZF1 = molecular target: T6, IKZF1 (Homo sapiens, UniProt Q13422+Q96SW2); assay: as above; type: cell-based; conditions: Western blot, 24 hours of compound treatment, compounds tested at 50 nM and 500 nM (concentration for the table not stated)
T6 construct: effects of the compounds of the present disclosure on the expression of target proteins in cells; endogenous in cells; host or cells: human PBMCs (Milecell Biotechnologies)
T6 sequence (Q13422 whole entry): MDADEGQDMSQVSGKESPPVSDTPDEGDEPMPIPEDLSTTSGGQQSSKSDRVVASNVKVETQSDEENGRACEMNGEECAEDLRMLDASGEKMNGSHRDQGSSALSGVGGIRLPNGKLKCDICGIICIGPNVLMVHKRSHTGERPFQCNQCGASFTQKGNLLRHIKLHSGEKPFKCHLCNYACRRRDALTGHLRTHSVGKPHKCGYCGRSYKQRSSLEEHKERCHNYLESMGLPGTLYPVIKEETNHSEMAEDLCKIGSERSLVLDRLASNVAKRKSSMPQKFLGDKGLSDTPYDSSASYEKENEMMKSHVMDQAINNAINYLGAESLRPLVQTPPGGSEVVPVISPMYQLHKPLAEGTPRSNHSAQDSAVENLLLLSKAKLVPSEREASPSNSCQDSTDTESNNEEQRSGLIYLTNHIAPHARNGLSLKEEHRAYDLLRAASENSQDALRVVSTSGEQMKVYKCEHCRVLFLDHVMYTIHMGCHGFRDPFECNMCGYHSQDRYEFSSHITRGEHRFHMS
T6 sequence (Q96SW2 whole entry): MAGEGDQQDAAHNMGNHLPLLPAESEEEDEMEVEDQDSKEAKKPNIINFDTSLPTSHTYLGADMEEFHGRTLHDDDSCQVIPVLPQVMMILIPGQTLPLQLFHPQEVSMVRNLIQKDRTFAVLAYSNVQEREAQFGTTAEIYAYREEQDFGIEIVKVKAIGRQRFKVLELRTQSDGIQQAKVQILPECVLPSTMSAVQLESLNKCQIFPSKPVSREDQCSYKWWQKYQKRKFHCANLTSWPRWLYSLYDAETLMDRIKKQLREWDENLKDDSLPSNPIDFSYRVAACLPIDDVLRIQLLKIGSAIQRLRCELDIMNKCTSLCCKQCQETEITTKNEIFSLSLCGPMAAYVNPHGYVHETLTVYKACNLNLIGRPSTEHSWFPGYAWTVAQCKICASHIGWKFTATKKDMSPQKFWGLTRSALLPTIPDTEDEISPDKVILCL
T6 sequence (Q16531 whole entry partner): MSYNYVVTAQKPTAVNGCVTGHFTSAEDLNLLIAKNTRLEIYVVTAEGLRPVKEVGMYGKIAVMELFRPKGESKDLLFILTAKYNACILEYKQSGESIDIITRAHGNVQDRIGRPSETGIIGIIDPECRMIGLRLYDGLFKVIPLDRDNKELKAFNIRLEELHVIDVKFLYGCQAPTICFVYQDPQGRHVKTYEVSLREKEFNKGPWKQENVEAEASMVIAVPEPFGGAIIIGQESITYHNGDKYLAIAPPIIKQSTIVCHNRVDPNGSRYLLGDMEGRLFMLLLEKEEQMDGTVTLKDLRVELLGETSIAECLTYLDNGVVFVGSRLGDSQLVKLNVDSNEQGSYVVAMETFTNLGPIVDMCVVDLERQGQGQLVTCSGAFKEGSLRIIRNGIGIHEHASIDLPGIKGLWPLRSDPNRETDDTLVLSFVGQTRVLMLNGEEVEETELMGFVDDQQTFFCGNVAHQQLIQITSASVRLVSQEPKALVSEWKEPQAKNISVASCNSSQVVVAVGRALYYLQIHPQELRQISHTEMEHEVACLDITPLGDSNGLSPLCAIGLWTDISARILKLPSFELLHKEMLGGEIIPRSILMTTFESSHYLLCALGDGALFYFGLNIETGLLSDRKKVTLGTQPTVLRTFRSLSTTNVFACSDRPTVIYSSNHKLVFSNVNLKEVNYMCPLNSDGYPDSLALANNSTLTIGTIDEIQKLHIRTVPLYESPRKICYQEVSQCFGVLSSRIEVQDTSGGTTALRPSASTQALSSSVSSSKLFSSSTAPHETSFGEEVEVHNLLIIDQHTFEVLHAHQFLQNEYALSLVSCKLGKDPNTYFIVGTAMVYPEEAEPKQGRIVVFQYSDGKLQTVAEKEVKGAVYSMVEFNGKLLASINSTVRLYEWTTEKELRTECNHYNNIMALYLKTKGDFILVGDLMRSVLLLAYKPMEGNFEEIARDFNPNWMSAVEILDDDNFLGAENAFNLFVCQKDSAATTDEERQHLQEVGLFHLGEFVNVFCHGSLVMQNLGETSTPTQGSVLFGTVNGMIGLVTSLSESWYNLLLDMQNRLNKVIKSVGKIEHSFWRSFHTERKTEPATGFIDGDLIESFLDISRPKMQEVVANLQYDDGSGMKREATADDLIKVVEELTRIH

T3 sequence (Q9UKT9 whole entry): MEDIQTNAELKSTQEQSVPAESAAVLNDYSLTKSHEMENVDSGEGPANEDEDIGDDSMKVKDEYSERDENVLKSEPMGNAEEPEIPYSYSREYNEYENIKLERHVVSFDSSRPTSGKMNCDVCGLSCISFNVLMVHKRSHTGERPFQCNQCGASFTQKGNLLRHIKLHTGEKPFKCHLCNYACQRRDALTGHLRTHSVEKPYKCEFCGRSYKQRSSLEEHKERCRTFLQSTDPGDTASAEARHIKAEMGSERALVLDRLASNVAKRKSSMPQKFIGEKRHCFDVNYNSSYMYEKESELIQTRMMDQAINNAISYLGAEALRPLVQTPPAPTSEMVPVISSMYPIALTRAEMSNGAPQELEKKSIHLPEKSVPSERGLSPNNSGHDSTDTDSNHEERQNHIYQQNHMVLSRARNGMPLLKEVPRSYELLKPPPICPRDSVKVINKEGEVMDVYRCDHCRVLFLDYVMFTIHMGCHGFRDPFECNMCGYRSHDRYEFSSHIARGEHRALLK
T3 sequence (Q96SW2 whole entry): as the sequence (Q96SW2 whole entry) above
T3 sequence (Q16531 whole entry partner): as the sequence (Q16531 whole entry partner) above
T1 sequence (Q96SW2 whole entry): as the sequence (Q96SW2 whole entry) above
T4 sequence (P48729 whole entry): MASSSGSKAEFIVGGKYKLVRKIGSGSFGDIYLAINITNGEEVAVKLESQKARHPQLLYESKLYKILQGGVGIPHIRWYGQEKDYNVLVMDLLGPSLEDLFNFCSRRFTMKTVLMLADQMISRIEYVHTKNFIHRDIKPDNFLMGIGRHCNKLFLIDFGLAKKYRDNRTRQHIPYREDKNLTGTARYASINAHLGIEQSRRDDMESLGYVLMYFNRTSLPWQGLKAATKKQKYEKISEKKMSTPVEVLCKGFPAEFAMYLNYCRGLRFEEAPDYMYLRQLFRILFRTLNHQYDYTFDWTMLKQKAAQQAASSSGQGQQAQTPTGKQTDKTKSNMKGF
T4 sequence (Q96SW2 whole entry): as the sequence (Q96SW2 whole entry) above
T4 sequence (Q16531 whole entry partner): as the sequence (Q16531 whole entry partner) above
T2 sequence (Q9UKS7 whole entry): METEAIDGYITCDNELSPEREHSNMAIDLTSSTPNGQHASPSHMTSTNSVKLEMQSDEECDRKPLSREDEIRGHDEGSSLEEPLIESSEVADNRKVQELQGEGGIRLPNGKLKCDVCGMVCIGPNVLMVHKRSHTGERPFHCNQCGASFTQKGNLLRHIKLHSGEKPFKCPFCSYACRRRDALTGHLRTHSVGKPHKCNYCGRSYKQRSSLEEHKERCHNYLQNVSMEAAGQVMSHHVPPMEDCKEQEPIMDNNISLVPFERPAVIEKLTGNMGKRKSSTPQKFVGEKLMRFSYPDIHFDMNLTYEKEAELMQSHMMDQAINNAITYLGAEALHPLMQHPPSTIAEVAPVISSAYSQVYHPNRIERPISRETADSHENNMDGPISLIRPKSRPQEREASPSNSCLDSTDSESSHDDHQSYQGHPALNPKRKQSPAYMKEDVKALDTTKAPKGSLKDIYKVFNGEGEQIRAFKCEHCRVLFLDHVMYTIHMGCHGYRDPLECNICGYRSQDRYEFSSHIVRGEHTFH
T2 sequence (Q96SW2 whole entry): as the sequence (Q96SW2 whole entry) above
T2 sequence (Q16531 whole entry partner): as the sequence (Q16531 whole entry partner) above
T5 sequence (P30291 whole entry): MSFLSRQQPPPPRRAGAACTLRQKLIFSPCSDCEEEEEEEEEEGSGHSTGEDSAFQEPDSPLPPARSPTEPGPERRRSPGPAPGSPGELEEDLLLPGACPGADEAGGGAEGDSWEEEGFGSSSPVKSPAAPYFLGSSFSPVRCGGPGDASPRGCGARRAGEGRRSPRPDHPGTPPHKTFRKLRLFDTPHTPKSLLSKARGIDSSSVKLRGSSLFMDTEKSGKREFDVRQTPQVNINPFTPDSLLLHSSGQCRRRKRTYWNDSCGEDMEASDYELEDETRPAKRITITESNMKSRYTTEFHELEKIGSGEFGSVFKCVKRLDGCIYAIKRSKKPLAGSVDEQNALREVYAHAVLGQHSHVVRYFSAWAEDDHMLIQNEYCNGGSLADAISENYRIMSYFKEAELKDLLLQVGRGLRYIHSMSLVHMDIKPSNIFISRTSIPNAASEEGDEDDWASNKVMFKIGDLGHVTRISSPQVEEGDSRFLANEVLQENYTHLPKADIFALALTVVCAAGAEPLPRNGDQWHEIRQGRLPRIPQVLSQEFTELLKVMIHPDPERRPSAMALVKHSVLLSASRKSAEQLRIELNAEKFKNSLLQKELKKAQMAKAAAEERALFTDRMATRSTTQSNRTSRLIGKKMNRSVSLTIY
T5 sequence (Q96SW2 whole entry): as the sequence (Q96SW2 whole entry) above
T5 sequence (Q16531 whole entry partner): as the sequence (Q16531 whole entry partner) above

inhibition at 0.5 µM [1] | inhibition at 2 µM [1] | SMILES | GSPT1 substrate protein remaining % (GSPT1) | IKZF2 substrate protein remaining % (IKZF2) | IKZF3 substrate protein remaining % (IKZF3) | CK1α substrate protein remaining % (CK1α) | Wee1 substrate protein remaining % (WEE1) | IKZF 1 substrate protein remaining % (IKZF1)
40 to 53% | 80 to 100% | O=C1CCC(N2Cc3c(CN4CCN(c5nccc(I)c5F)CC4)cccc3C2=S)C(=O)N1 (stereo not drawn) [GT-08704, 3-(4-((4-(3-fluoro-4-iodopyridin-2-yl)piperazin-1-yl)methyl)-1-thioxoisoindolin-2-yl)piperidine-2,6-dione] | B (80%< substrate protein remaining %≤ 100%) | A (0% ≤ substrate protein remaining % ≤ 80%) | A (0% ≤ substrate protein remaining % ≤ 80%) | B (80%< substrate protein remaining %≤ 100%) | A (0% ≤ substrate protein remaining % ≤ 80%) | B (80%< substrate protein remaining %≤ 100%)
30 to 40% | 60 to 80% | O=C1CCC(N2Cc3c(CN4CCN(c5ncc(C(F)(F)F)cc5Cl)CC4)cccc3C2=S)C(=O)N1 (stereo not drawn) [GT-08705, 3-(4-((4-(3-chloro-5-(trifluoromethyl)pyridin-2-yl)piperazin-1-yl)methyl)-1-thioxoisoindolin-2-yl)piperidine-2,6-dione] | B (80%< substrate protein remaining %≤ 100%) | B (80%< substrate protein remaining %≤ 100%) | B (80%< substrate protein remaining %≤ 100%) | B (80%< substrate protein remaining %≤ 100%) | A (0% ≤ substrate protein remaining % ≤ 80%) | B (80%< substrate protein remaining %≤ 100%)
53 to 60% | 80 to 100% | O=C1CCC(N2Cc3c(CN4CCN(c5cccnc5)CC4)cccc3C2=S)C(=O)N1 (stereo not drawn) [GT-08706, 3-(4-((4-(pyridin-3-yl)piperazin-1-yl)methyl)-1-thioxoisoindolin-2-yl)piperidine-2,6-dione] | A (0% ≤ substrate protein remaining % ≤ 80%) | A (0% ≤ substrate protein remaining % ≤ 80%) | A (0% ≤ substrate protein remaining % ≤ 80%) | B (80%< substrate protein remaining %≤ 100%) | A (0% ≤ substrate protein remaining % ≤ 80%) | B (80%< substrate protein remaining %≤ 100%)
60 to 80% | 80 to 100% | O=C1CCC(N2Cc3c(CN4CCN(c5ccc(Cl)nc5)CC4)cccc3C2=S)C(=O)N1 (stereo not drawn) [GT-08723, 3-(4-((4-(6-chloropyridin-3-yl)piperazin-1-yl)methyl)-1-thioxoisoindolin-2-yl)piperidine-2,6-dione] | A (0% ≤ substrate protein remaining % ≤ 80%) | A (0% ≤ substrate protein remaining % ≤ 80%) | A (0% ≤ substrate protein remaining % ≤ 80%) | B (80%< substrate protein remaining %≤ 100%) | A (0% ≤ substrate protein remaining % ≤ 80%) | B (80%< substrate protein remaining %≤ 100%)
60 to 80% | 80 to 100% | O=C1CCC(N2Cc3c(CN4CCN(c5cncc(Cl)c5Cl)CC4)cccc3C2=S)C(=O)N1 (stereo not drawn) [GT-08724, 3-(4-((4-(4,5-dichloropyridin-3-yl)piperazin-1-yl)methyl)-1-thioxoisoindolin-2-yl)piperidine-2,6-dione] | B (80%< substrate protein remaining %≤ 100%) | B (80%< substrate protein remaining %≤ 100%) | B (80%< substrate protein remaining %≤ 100%) | B (80%< substrate protein remaining %≤ 100%) | A (0% ≤ substrate protein remaining % ≤ 80%) | B (80%< substrate protein remaining %≤ 100%)
60 to 80% | 80 to 100% | O=C1CCC(N2Cc3c(CN4CCN(c5ccncc5)CC4)cccc3C2=S)C(=O)N1 (stereo not drawn) [GT-08726, 3-(4-((4-(pyridin-4-yl)piperazin-1-yl)methyl)-1-thioxoisoindolin-2-yl)piperidine-2,6-dione] | A (0% ≤ substrate protein remaining % ≤ 80%) | A (0% ≤ substrate protein remaining % ≤ 80%) | A (0% ≤ substrate protein remaining % ≤ 80%) | B (80%< substrate protein remaining %≤ 100%) | A (0% ≤ substrate protein remaining % ≤ 80%) | B (80%< substrate protein remaining %≤ 100%)
53 to 60% | 80 to 100% | O=C1CCC(N2Cc3c(CN4CCN(c5nccc(F)c5F)CC4)cccc3C2=S)C(=O)N1 (stereo not drawn) [GT-08728, 3-(4-((4-(3,4-difluoropyridin-2-yl)piperazin-1-yl)methyl)-1-thioxoisoindolin-2-yl)piperidine-2,6-dione] | B (80%< substrate protein remaining %≤ 100%) | B (80%< substrate protein remaining %≤ 100%) | B (80%< substrate protein remaining %≤ 100%) | B (80%< substrate protein remaining %≤ 100%) | A (0% ≤ substrate protein remaining % ≤ 80%) | B (80%< substrate protein remaining %≤ 100%)
60 to 80% | 80 to 100% | O=C1CCC(N2Cc3c(CN4CCN(c5ccncc5Br)CC4)cccc3C2=S)C(=O)N1 (stereo not drawn) [GT-08729, 3-(4-((4-(3-bromopyridin-4-yl)piperazin-1-yl)methyl)-1-thioxoisoindolin-2-yl)piperidine-2,6-dione] | B (80%< substrate protein remaining %≤ 100%) | B (80%< substrate protein remaining %≤ 100%) | B (80%< substrate protein remaining %≤ 100%) | B (80%< substrate protein remaining %≤ 100%) | A (0% ≤ substrate protein remaining % ≤ 80%) | B (80%< substrate protein remaining %≤ 100%)
60 to 80% | 80 to 100% | O=C1CCC(N2Cc3c(CN4CCN(c5ccncc5F)CC4)cccc3C2=S)C(=O)N1 (stereo not drawn) [GT-08730, 3-(4-((4-(3-fluoropyridin-4-yl)piperazin-1-yl)methyl)-1-thioxoisoindolin-2-yl)piperidine-2,6-dione] | B (80%< substrate protein remaining %≤ 100%) | B (80%< substrate protein remaining %≤ 100%) | B (80%< substrate protein remaining %≤ 100%) | B (80%< substrate protein remaining %≤ 100%) | A (0% ≤ substrate protein remaining % ≤ 80%) | B (80%< substrate protein remaining %≤ 100%)
60 to 80% | 80 to 100% | O=C1CCC(N2Cc3c(CN4CCN(c5ccncc5Cl)CC4)cccc3C2=S)C(=O)N1 (stereo not drawn) [GT-08731, 3-(4-((4-(3-chloropyridin-4-yl)piperazin-1-yl)methyl)-1-thioxoisoindolin-2-yl)piperidine-2,6-dione] | A (0% ≤ substrate protein remaining % ≤ 80%) | B (80%< substrate protein remaining %≤ 100%) | B (80%< substrate protein remaining %≤ 100%) | B (80%< substrate protein remaining %≤ 100%) | A (0% ≤ substrate protein remaining % ≤ 80%) | B (80%< substrate protein remaining %≤ 100%)
60 to 80% | 80 to 100% | O=C1CCC(N2Cc3c(CN4CCN(c5ccnc(Cl)c5F)CC4)cccc3C2=S)C(=O)N1 (stereo not drawn) [GT-08732, 3-(4-((4-(2-chloro-3-fluoropyridin-4-yl)piperazin-1-yl)methyl)-1-thioxoisoindolin-2-yl)piperidine-2,6-dione] | B (80%< substrate protein remaining %≤ 100%) | B (80%< substrate protein remaining %≤ 100%) | B (80%< substrate protein remaining %≤ 100%) | B (80%< substrate protein remaining %≤ 100%) | A (0% ≤ substrate protein remaining % ≤ 80%) | B (80%< substrate protein remaining %≤ 100%)
60 to 80% | 80 to 100% | O=C1CCC(N2Cc3c(CN4CCN(c5ccnc(Br)c5F)CC4)cccc3C2=S)C(=O)N1 (stereo not drawn) [GT-08733, 3-(4-((4-(2-bromo-3-fluoropyridin-4-yl)piperazin-1-yl)methyl)-1-thioxoisoindolin-2-yl)piperidine-2,6-dione] | A (0% ≤ substrate protein remaining % ≤ 80%) | B (80%< substrate protein remaining %≤ 100%) | B (80%< substrate protein remaining %≤ 100%) | B (80%< substrate protein remaining %≤ 100%) | A (0% ≤ substrate protein remaining % ≤ 80%) | B (80%< substrate protein remaining %≤ 100%)

From EP4745135A1 (Gluetacs Therapeutics (Shanghai) Co., Ltd., priority 2023, dated 2025)
